In patent publication US20080234262A1 (Wyeth, priority 2007, published 2008):
pIC50: −log10 of the molar value.

Experiments:
PI3K = PI3K (Homo sapiens, UniProt P42336); assay: Fluorescence polarization assay for PI3K; assay type: biochemical; conditions: PI3Kα; read-out: PI3Kα IC50;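 note: PI3K kinase reaction on PIP2 with ATP, 30-60 min, product sensed by GST-GRP with red probe in fluorescence polarization (mP), controls without enzyme and at zero time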
prostate line LNCap = assay: In vitro cell culture growth assay (MTS), LNCap; assay type: cell-based, human; conditions: LNCap cells, three days after drug treatment;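 note: viable cell density read by absorbance at 490 nm, growth expressed as percent of vehicle-treated cells on the same plate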
breast line MDA468 = assay: In vitro cell culture growth assay (MTS), MDA468; assay type: cell-based, human; conditions: MDA468 cells, three days after drug treatment
Summary of the method: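 Three-day drug treatment starting 1 day post-plating; viable cells quantified via MTS metabolism (A490); effect normalised to in-plate vehicle controls as % growth.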

Sequence of PI3K (P42336 whole entry): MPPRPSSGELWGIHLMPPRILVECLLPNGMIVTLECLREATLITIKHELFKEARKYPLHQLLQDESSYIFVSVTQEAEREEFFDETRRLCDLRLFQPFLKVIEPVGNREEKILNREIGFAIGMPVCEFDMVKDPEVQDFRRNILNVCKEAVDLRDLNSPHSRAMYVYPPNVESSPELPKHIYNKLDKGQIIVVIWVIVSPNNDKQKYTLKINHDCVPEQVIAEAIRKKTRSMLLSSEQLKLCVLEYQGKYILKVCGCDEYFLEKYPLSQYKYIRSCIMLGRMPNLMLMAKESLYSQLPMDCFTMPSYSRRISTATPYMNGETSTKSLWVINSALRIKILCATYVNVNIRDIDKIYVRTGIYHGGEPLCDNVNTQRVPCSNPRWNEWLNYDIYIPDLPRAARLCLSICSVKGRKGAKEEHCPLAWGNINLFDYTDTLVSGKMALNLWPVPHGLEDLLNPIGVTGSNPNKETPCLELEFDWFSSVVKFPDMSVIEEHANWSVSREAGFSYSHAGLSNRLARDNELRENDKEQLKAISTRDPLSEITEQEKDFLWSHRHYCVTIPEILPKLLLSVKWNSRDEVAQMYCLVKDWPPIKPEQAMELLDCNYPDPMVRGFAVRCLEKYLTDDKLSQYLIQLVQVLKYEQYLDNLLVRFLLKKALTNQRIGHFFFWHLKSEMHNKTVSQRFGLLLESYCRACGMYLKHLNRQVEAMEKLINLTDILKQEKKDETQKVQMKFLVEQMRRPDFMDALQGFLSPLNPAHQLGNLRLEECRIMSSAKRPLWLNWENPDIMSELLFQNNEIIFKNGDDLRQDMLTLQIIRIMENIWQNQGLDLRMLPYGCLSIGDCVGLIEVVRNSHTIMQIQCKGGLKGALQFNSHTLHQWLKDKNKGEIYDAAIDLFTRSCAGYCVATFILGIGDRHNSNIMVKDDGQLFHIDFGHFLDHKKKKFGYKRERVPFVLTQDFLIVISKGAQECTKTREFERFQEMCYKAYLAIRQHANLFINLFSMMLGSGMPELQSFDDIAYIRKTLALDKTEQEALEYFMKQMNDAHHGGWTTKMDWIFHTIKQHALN
Sequence of PI3K (P27986 whole entry partner): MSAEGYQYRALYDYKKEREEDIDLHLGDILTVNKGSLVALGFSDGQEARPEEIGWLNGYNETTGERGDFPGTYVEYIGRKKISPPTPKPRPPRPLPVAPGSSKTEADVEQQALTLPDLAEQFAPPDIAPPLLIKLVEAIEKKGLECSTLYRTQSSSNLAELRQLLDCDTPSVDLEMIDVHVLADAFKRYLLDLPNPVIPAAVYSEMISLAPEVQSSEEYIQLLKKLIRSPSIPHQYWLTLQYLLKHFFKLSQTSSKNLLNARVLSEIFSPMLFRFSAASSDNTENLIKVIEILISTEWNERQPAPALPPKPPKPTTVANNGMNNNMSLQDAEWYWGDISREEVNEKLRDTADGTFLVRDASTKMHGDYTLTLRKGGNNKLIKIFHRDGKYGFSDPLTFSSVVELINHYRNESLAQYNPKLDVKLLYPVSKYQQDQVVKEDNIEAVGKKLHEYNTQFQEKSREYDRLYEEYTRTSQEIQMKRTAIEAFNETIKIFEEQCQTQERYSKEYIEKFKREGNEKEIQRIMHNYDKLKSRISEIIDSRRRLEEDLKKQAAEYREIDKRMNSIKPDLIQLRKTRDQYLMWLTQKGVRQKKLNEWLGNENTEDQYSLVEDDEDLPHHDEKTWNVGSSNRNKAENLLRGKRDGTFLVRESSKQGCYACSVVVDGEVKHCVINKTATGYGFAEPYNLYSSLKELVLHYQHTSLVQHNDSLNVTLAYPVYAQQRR

Row | Structure (SMILES) | pIC50 (PI3K) | pIC50 (prostate line LNCap) | pIC50 (prostate line LNCap; Homo sapiens, LNCaP, 72 h) | pIC50 (breast line MDA468) | pIC50 (breast line MDA468; Homo sapiens, 72 h)
1 | NCc1cccc(-c2nc(N3CCOCC3)c3cnn(-c4ccccc4)c3n2)c1 [Compound 144] | 6.20 | – | 5.62 | – | 5.42
2 | CC(=O)NCc1ccc(-c2nc(N3CCOCC3)c3cnn(-c4ccccc4)c3n2)cc1 [Compound 147] | 6.46 | – | 5.25 | – | 4.66
3 | CNC(=O)Nc1ccc(-c2nc(N3CCOCC3)c3cnn(C4CCN(Cc5ccncc5)CC4)c3n2)cc1 [Compound 426, 1-methyl-3-(4-{4-morpholin-4-yl-1-[1-(pyridin-4-ylmethyl)piperidin-4-yl]-1H-pyrazolo[3,4-d]pyrimidin-6-yl}phenyl)urea] | 6.95 | – | 7.22 | – | 6.15
4 | c1cc2cc(-c3nc(N4CCOCC4)c4cnn(C5CCCCO5)c4n3)ccc2[nH]1 (stereo not drawn) [Compound 237, 6-(1H-indol-5-yl)-4-morpholin-4-yl-1-(tetrahydro-2H-pyran-2-yl)-1H-pyrazolo[3,4-d]pyrimidine] | 5.62 | – | 5.38 | – | 6.00
5 | O=C(N1CCOCC1)N1CCC(n2ncc3c(N4CCOCC4)nc(-c4ccc5[nH]ccc5c4)nc32)CC1 [Compound 121] | 5.67 | – | 6.22 | – | 5.70
6 | NNC(=O)Nc1ccc(-c2nc(N3CCOCC3)c3cnn(C4CCN(C(=O)c5cccnc5)CC4)c3n2)cc1 [Compound 551, N-(4-{4-morpholin-4-yl-1-[1-(pyridin-3-ylcarbonyl)piperidin-4-yl]-1H-pyrazolo[3,4-d]pyrimidin-6-yl}phenyl)hydrazinecarboxamide] | 6.40 | – | 5.00 | – | 4.85
7 | CC(=O)Nc1ccc(-c2nc(N3CCOCC3)c3cnn(C4CCN(Cc5ccccc5)CC4)c3n2)cc1[N+](=O)[O-] [Compound 184, N-{4-[1-(1-benzylpiperidin-4-yl)-4-morpholin-4-yl-1H-pyrazolo[3,4-d]pyrimidin-6-yl]-2-nitrophenyl}acetamide] | 5.51 | – | 4.22 | – | 4.22
8 | CNCC(=O)N1CCC(n2ncc3c(N4CCOCC4)nc(-c4ccc5[nH]ccc5c4)nc32)CC1 [Compound 96] | 6.35 | – | 5.89 | – | 5.55
9 | Oc1cccc(-c2nc(N3CCOCC3)c3cnn(C4CCN(CC5CCCCC5)CC4)c3n2)c1 [Compound 17] | 6.97 | – | 6.51 | – | 5.70
10 | O=C(NCCF)Nc1ccc(-c2nc(N3CCOCC3)c3cnn(C4CCN(C(=O)c5cccnc5)CC4)c3n2)cc1 [Compound 548, 1-(2-fluoroethyl)-3-(4-{4-morpholin-4-yl-1-[1-(pyridin-3-ylcarbonyl)piperidin-4-yl]-1H-pyrazolo[3,4-d]pyrimidin-6-yl}phenyl)urea] | 6.27 | – | 6.20 | – | 6.28
11 | O=C(NO)Nc1ccc(-c2nc(N3CCOCC3)c3cnn(C4CCN(Cc5cccnc5)CC4)c3n2)cc1 [Compound 562, 1-hydroxy-3-(4-{4-morpholin-4-yl-1-[1-(pyridin-3-ylmethyl)piperidin-4-yl]-1H-pyrazolo[3,4-d]pyrimidin-6-yl}phenyl)urea] | 6.59 | – | 5.96 | – | 5.82
12 | C=CC(=O)Nc1ccc(-c2nc(N3CCOCC3)c3cn[nH]c3n2)cc1 [Compound 526, N-[4-(4-morpholin-4-yl-1H-pyrazolo[3,4-d]pyrimidin-6-yl)phenyl]acrylamide] | 6.22 | – | 5.47 | – | 5.15
13 | CC(C)C(=O)Nc1ccc(-c2nc(N3CCOCC3)c3cnn(C4CCN(Cc5ccccc5)CC4)c3n2)cc1 [Compound 186] | 5.47 | – | 5.40 | – | 5.41
14 | Clc1cc(-c2nc(N3CCOCC3)c3cnn(C4CCN(Cc5ccccc5)CC4)c3n2)ccn1 [Compound 157] | 5.99 | – | 4.48 | – | 4.22

Second part, led by results:

Row | pIC50 (PI3K) | pIC50 (prostate line LNCap) | pIC50 (prostate line LNCap; Homo sapiens, LNCaP, 72 h) | Structure (SMILES) | pIC50 (breast line MDA468) | pIC50 (breast line MDA468; Homo sapiens, 72 h)
15 | 6.36 | > 7.57 | – | O=C(Nc1ccc(-c2nc(N3CCOCC3)c3cnn(C4CCN(Cc5cccnc5)CC4)c3n2)cc1)NC1CC1 [Compound 649, 1-cyclopropyl-3-(4-{4-morpholin-4-yl-1-[1-(pyridin-3-ylmethyl)piperidin-4-yl]-1H-pyrazolo[3,4-d]pyrimidin-6-yl}phenyl)urea] | 7.07 | –
16 | 6.54 | – | 6.00 | CNC(=O)Nc1ccc(-c2nc(N3CCOCC3)c3cnn(C4CCN(C(=O)COC)CC4)c3n2)cc1 [Example 474, 1-(4-{1-[1-(methoxyacetyl)piperidin-4-yl]-4-morpholin-4-yl-1H-pyrazolo[3,4-d]pyrimidin-6-yl}phenyl)-3-methylurea] | – | 5.85
17 | 7.92 | – | 9.00 | COC(=O)N1CCC(n2ncc3c(N4CCOCC4)nc(-c4ccc(NC(=O)Nc5ccc(CCNCCO)cc5)cc4)nc32)CC1 [Compound 921, methyl 4-[6-(4-{[(4-{2-[(2-hydroxyethyl)amino]ethyl}phenyl)carbamoyl]amino}phenyl)-4-morpholin-4-yl-1H-pyrazolo[3,4-d]pyrimidin-1-yl]piperidine-1-carboxylate] | – | 6.92
18 | 5.53 | – | 6.35 | Cc1ccncc1C(=O)N1CCC(n2ncc3c(N4CCOCC4)nc(-c4ccc5[nH]ccc5c4)nc32)CC1 [Example 199, 6-(1H-indol-5-yl)-1-{1-[(4-methylpyridin-3-yl)carbonyl]piperidin-4-yl}-4-morpholin-4-yl-1H-pyrazolo[3,4-d]pyrimidine] | – | 5.74
19 | 7.08 | 6.77 | – | NC(=O)Nc1ccc(-c2nc(N3CCOCC3)c3cnn(C4CCN(C(=O)c5ccccc5)CC4)c3n2)cc1 [Compound 627, 1-{4-[1-(1-benzoylpiperidin-4-yl)-4-morpholin-4-yl-1H-pyrazolo[3,4-d]pyrimidin-6-yl]phenyl}urea] | 6.80 | –
20 | 7.55 | – | 7.40 | CCOC(=O)N1CCC(n2ncc3c(N4CCOC[C@@H]4C)nc(-c4ccc(NC(=O)Nc5cccnc5)cc4)nc32)CC1 [Compound 897, ethyl 4-(4-[(3S)-3-methylmorpholin-4-yl]-6-{4-[(pyridin-3-ylcarbamoyl)amino]phenyl}-1H-pyrazolo[3,4-d]pyrimidin-1-yl)piperidine-1-carboxylate] | – | 6.49
21 | 6.10 | – | 6.30 | COC(=O)Nc1ccc(-c2nc(N3CCOCC3)c3cnn(C4CCN(C(=O)c5ccc(F)cc5F)CC4)c3n2)cc1 [Example 449, methyl (4-{1-[1-(2,4-difluorobenzoyl)piperidin-4-yl]-4-morpholin-4-yl-1H-pyrazolo[3,4-d]pyrimidin-6-yl}phenyl)carbamate] | – | 5.92
22 | 6.66 | – | 7.48 | CCOC(=O)N1CCC(n2ncc3c(N4CCOCC4)nc(-c4ccc(NC(=O)NC)cc4)nc32)CC1 [Compound 750, ethyl 4-(6-{4-[(methylcarbamoyl)amino]phenyl}-4-morpholin-4-yl-1H-pyrazolo[3,4-d]pyrimidin-1-yl)piperidine-1-carboxylate] | – | 7.10
23 | 7.89 | – | 6.70 | CNCCNC(=O)Nc1ccc(-c2nc(N3CCOCC3)c3cnn(C4CCN(Cc5ccccc5)CC4)c3n2)cc1 [Example 300, 1-{4-[1-(1-benzylpiperidin-4-yl)-4-morpholin-4-yl-1H-pyrazolo[3,4-d]pyrimidin-6-yl]phenyl}-3-[2-(methylamino)ethyl]urea] | – | 6.70
24 | 6.10 | – | > 7.57 | CCOC(=O)N1CCC(n2ncc3c(N4CCOCC4)nc(-c4ccc(NC(=O)NCCF)cc4)nc32)CC1 [Compound 819, ethyl 4-[6-(4-{[(2-fluoroethyl)carbamoyl]amino}phenyl)-4-morpholin-4-yl-1H-pyrazolo[3,4-d]pyrimidin-1-yl]piperidine-1-carboxylate] | – | 7.15
25 | 6.73 | – | 7.25 | CNC(=O)Nc1ccc(-c2nc(N3CCOCC3)c3cnn(C4CCN(CC(F)(F)F)CC4)c3n2)cc1 [Example 470, 1-methyl-3-(4-{4-morpholin-4-yl-1-[1-(2,2,2-trifluoroethyl)piperidin-4-yl]-1H-pyrazolo[3,4-d]pyrimidin-6-yl}phenyl)urea] | – | 6.52
26 | 6.56 | – | 5.72 | CC1CN(c2nc(-c3cccc(O)c3)nc3c2cnn3-c2ccccc2)CCO1 (stereo not drawn) [Compound 943, 3-[4-(2-methylmorpholin-4-yl)-1-phenyl-1H-pyrazolo[3,4-d]pyrimidin-6-yl]phenol] | – | 5.12
27 | 7.39 | – | 7.15 | O=C(Nc1ccccc1)Nc1ccc(-c2nc(N3CCOCC3)c3cnn(C4CCN(Cc5cccnc5)CC4)c3n2)cc1F [Example 351, 1-(2-fluoro-4-{4-morpholin-4-yl-1-[1-(pyridin-3-ylmethyl)piperidin-4-yl]-1H-pyrazolo[3,4-d]pyrimidin-6-yl}phenyl)-3-phenylurea] | – | 6.40
28 | 6.89 | – | 7.22 | CC(C)(C)OC(=O)N1CCC(n2ncc3c(N4CCOCC4)nc(-c4ccc(NC(=O)Nc5ccc(F)nc5)cc4)nc32)CC1 [Compound 952, tert-butyl 4-[6-(4-{[(6-fluoropyridin-3-yl)carbamoyl]amino}phenyl)-4-morpholin-4-yl-1H-pyrazolo[3,4-d]pyrimidin-1-yl]piperidine-1-carboxylate] | – | 6.12
29 | 4.96 | – | 5.77 | c1ccc2cc(-c3nc(N4CCOCC4)c4cnn(C5CCNCC5)c4n3)ccc2c1 [Example 44] | – | 5.85
30 | 6.11 | 6.60 | – | COC(=O)Nc1ccc(-c2nc(N3CCOCC3)c3cnn(C4CCN(C(=O)c5ccccc5Cl)CC4)c3n2)cc1 [Compound 688, methyl (4-{1-[1-(2-chlorobenzoyl)piperidin-4-yl]-4-morpholin-4-yl-1H-pyrazolo[3,4-d]pyrimidin-6-yl}phenyl)carbamate] | 6.12 | –
